The source of these data is patent publication US20090264421A1 (priority 2007, published 2009).

The target in data set [1] is T1, thioredoxin reductase (Rattus norvegicus, UniProt O89049).
T1 construct: rat liver thioredoxin reductase; purchased Sigma (St. Louis, Mo.); host or cells: rat liver
T1 sequence (O89049 1-499): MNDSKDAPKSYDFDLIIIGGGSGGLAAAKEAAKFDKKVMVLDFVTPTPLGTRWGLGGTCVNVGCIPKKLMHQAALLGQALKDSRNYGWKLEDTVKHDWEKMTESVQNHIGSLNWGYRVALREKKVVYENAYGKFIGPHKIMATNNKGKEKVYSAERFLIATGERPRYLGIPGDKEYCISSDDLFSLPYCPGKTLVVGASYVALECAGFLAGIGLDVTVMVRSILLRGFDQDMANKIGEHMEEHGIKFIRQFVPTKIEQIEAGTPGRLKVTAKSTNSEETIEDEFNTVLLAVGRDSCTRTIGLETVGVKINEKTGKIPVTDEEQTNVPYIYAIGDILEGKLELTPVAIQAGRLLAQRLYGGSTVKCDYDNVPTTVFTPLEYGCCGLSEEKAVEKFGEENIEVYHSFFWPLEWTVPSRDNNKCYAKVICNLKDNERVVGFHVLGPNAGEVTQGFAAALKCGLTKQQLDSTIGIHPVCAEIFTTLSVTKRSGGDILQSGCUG
Nature of the data set: Thioredoxin reductase activity assay (gel-based oxidation state of thioredoxin method). It counts as biochemical. As to the method:
(§1) HeLa cells were obtained from ATCC.
Thioredoxin Reductase Activity Assay (gel-based oxidation state of thioredoxin method): Reduction of thioredoxin by thioredoxin reductase was measured by the decrease in electrophoretic mobility caused by covalent modification of thioredoxin (by AMS) when the disulfide is reduced. […] At the indicated time, a 5 μL sample was removed and immediately added to 5 μL of 30 mM AMS in TE buffer (pH 7.5). The AMS was allowed to react (15 minutes at 22° C.) with reduced thioredoxin sulfhydryl groups, then the samples were mixed with non-reducing sample buffer and were electrophoresed on 18% Tris-HCl SDS-PAGE gels. The gels were stained with Coomassie blue and bands were imaged and quantitated using a Syngene InGenius gel documentation system (Frederick, Md.).

For data set [2], the system named is A549 cells. It counts as cell-based, human. The following applies: within 1-2 minutes. An excerpt: Measurement of intra- and extracellular chaetocin levels: Tumor cells treated with indicated chaetocin concentrations were washed twice with ice cold PBS, immediately solubilized in 0.5 M perchloric acid, and evaluated “real time” via HPLC using Beckman System Gold Nouveau Software with a dual pump 125 gradient pump system, 507e autosampler, 168 diode array detector, and Beckman Ultrasphere ODS column (4.6 mm×[…]×7 μm) using the following elution profile: 100% water to 100% methanol linear gradient over 40 minutes, followed by a 10 minute period of elution with 100% methanol. Quantitation was accomplished using a standard curve of peak areas derived from analogous HPLC data using varying concentrations of chaetocin.

Data set [3] concerns U266 myeloma cells. As to the kind of experiment: ROS (superoxide) by FACS with hydroethidium in U266 cells. Format: cell-based, human. The following applies: 200 nM, p<0.001. As to the method: FIG. 7. […] A549 cells were exposed to the indicated concentration of chaetocin for 24 hours, with addition of glutathione or diluent 30 minutes prior to chaetocin addition. Glutathione levels were assessed by spectrophotometric assay as described below. […] Cells were treated with 10 μM chaetocin for 20 minutes prior to assay, and calculated intracellular chaetocin levels were measured by HPLC with adjusted for differences in average cell volume (calculated from measured cell radii ascertained via light microscopy). Shaded area represents 1 standard deviation confidence interval, with central bar reflecting the mean relative intracellular chaetocin level. […] Cells from 4 myeloma patients were exposed to 200 μM hydrogen peroxide for 24 hours prior to assay, with trypan blue exclusion used to assess surviving cells.
Assessment of cellular oxidative stress: Cellular oxidative stress was assessed utilizing 5,6-chloromethyl-2′,7′-dichlorodihydrofluorescein diacetate or hydroethidium (Molecular Probes/Invitrogen, Carlsbad, Calif.) as cell permeable fluorescent probes and FACS analyses.
A general note: Flow cytometry measures light scatter and fluorescence of single cells or particles in a stream.

The nature of data set [4]: Tolerability of IP chaetocin in mice. The following applies: 0.6 mg/kg and 0.25 mg/kg IP twice weekly for two weeks. It counts as in vivo, mouse. As to the method: Subsequent in vivo work in mice utilized the following formulation: 0.06 mg/mL chaetocin in 20% PEG400 and 79.14% […] NaCl with 0.86% DMSO as a cosolvent. This system retains in vitro activity in cell culture models.

The subject of data set [5] is RPMI 8226 myeloma xenografts. Nature of the data set: RPMI 8226 SCID mouse flank xenograft model. Format: in vivo. The following applies: 0.25 mg/kg intraperitoneally twice weekly, three weeks of treatment of established tumors, p<0.05. As to the method:
FIG. 4. Patient myeloma cells treated in mixed culture are selectively killed by chaetocin in comparison to other bone marrow leukocytes, and chaetocin has in vivo anti-myeloma activity. A-C. Unsorted bone marrow leukocytes obtained from 4 patients with multiple myeloma were treated with 100 nM Chaetocin or diluent for 24 hours and then subjected to FACS analyses to examine induced cell death in various leukocyte subpopulations. […] Results from 4 unsorted patient marrow leukocyte samples are indicated in C, indicating selective killing of myeloma cells by chaetocin in mixed culture in all 4 examined patient samples. In A-C, surviving cells were defined as those with low annexin and 7-AAD staining. D. Chaetocin has in vivo anti-myeloma activity in the RRMI 8226 SCID flank xenograft mouse model. […]
In vivo experiments: The in vivo effects of chaetocin were preliminarily explored at Southern Research Institute with assistance from Dr. William Waud (Birmingham, Ala.) in SCID mice using subcutaneously flank-implanted RPMI 8226 myeloma xenografts using a twice-weekly intraperitoneal administration schedule, with chaetocin formulated in 25% DMSO and 75% PEG400. Tumor weights were calculated from volumes derived from direct tumor measurements. […]

The target in data set [6] is T2, thioredoxin (Escherichia coli, UniProt P0AA25).
T2 construct: purchased Promega (Madison, Wis.)
As to the kind of experiment: Thioredoxin activity assay (insulin precipitation). Format: biochemical, E. coli. The following applies: higher chaetocin concentrations; read-out: IC50, Trx activity inhibition. As to the method: as §1
Thioredoxin Activity Assay: The 100 μL reaction contained 100 mM potassium phosphate (pH 7.0), 2 mM EDTA, 0.13 mM bovine insulin, 3.9 μM E. coli thioredoxin and chaetocin as indicated. The reaction was initiated by addition of 0.33 mM DTT, and turbidity was monitored at 620 nm in a plate reader. The initial linear rate was calculated based on the slope of the line after an increase in absorbance (indicating precipitation of insulin) started to occur.

In data set [7] the test system is freshly collected sorted patient CD138+ myeloma cells. The following applies: ex vivo, 24 hours, trypan blue exclusion. On the procedure:
FIG. 3. […] Survival indicated in A-E was assessed using a trypan blue exclusion assay, counting viable cells using a hemocytometer after 24 hour exposure to the indicated drugs and drug concentrations.
Patient bone marrow leukocytes were divided into myeloma (CD138+) and non-myeloma/normal leukocyte (CD138−) fractions employing sorting using magnetic bead technology in kit form (MACS CD138 microbeads, Miltenyi Biotech, Auburn, Calif.). Sorted cells were plated in a 96-well tissue culture plate at a concentration of 5×10^5 cells and dosed with indicated drug concentrations for 24 hours. Survival was assessed using a trypan blue exclusion assay.

pIC50: −log10 of the molar value.

T2 sequence (P0AA25 whole entry): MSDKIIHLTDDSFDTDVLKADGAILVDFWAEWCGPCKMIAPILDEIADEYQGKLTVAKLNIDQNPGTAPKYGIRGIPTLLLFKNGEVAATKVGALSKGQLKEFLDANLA

What is called pIC50 is the IC50 on a negative log10 scale, so that one unit is a factor of ten. With `CN1C(=O)[C@@]23C[C@]4([C@]56C[C@@]78SS[C@@](CO)(C(=O)N7[C@H]5Nc5ccccc56)N(C)C8=O)c5ccccc5N[C@@H]4N2C(=O)[C@]1(CO)SS3` [chaetocin], in data set [1] (gel-based, AMS modification), the “inhibition of reduction of thioredoxin by thioredoxin reductase” value was “inhibit the ability of TrxR1 to reduce Trx”. The negative-log IC50 (pIC50) in data set [1] (initial linear portion of the reaction, read-out: IC50, reduction of thioredoxin by thioredoxin reductase) was 5.40. Further, the “intracellular accumulation relative to applied extracellular concentration” value in data set [2] stood at 10 fold. The “peak shift (ROS, hydroethidium) relative to stained, untreated cells” value in data set [3] is recorded as 43.26+3.67. In data set [4], the GI toxicity result is “some GI toxicity was noted” and the tolerability result is reported as “tolerated”. In data set [5], the T/C values was 50-60%. Moreover, the negative logarithm of the IC50 (pIC50) in data set [6] was ~4.05. For the same compound, the “effect on matched CD138- normal bone marrow leukocytes” value in data set [7] is “largely sparing”.
